Experimental data from patent publication US12594271B2, “Combination therapy for cancer” (Health Research, Inc., priority 2019, dated 2026).

System: MDSCs
Test: MDSC suppression assay: inhibition of T cell proliferation by in vitro generated MDSCs
Type: cell-based, mouse
Conditions: ATRA 10 μM at start of culture, side-by-side with BRQ 1 μM
Experimental: FIG. 2. […] (A) MDSCs were produced in vitro from mouse bone marrow cells using GM-CSF and G-CSF±BRQ (1 μM) or ATRA (10 μM) at the start of the 4-day culture. Cells tested for their ability to inhibit T cell proliferation (1:1 ratio), as in FIG. 5. Fresh BM=Uncultured bone marrow cells. (B) Similar to A, except that uridine (200 μM) was added to rescue the effect of BRQ. (C) Expression of IRF8 (upper) or SLFN4 (lower) was analyzed by qRT-PCR in Lin^− BM cells cultured as in A for 2 days. Data normalized to the vehicle.
In Vitro Development of MDSCs. Unfractionated mouse bone marrow cells were cultured in dishes with recombinant mouse G-CSF and recombinant mouse GM-CSF (40 ng/ml of each cytokine) for 96 hours to produce MDSCs, as described (Marigo et al. Immunity 32:790-802, 2010). After culture, cells were collected and analyzed by flow cytometry for the indicated cell surface markers. Uncultured or fresh bone marrow (BM) cells served as a negative control.
Cultured Cells Develop Potent Immunosuppressive Capacity. Using the methods described for FIG. 4, experiments were then performed to determine whether the cells generated from this BM culture system functionally behaved as MDSCs, based on their ability to inhibit T cell proliferation in vitro. To that end, fresh BM (i.e., no in vitro culture) or cultured BM cells (i.e., MDSCs at two different MDSC-to-T cell ratios of 1:1 or 1:2) were co-mixed in 96-well plates with CellTrace Violet (CTV)—stained syngeneic naïve splenocytes as a source of T cells and stimulated with or without soluble agonistic anti-CD3 monoclonal antibody (mAb) (1 μg/ml) for 72 hours. After co-culture, CTV dye dilution in the gated CD4^+ or CD8^+ T cell fractions within the splenocyte populations was analyzed by flow cytometry to determine the extent of proliferation based on dye dilution. In FIG. 5, top panels show CTV dye dilution, as determined by flow cytometry and depicted as a histogram; bottom panels indicate the percentage of proliferation, based on quantification of the histogram data. […]

With `CC1=C(/C=C/C(C)=C/C=C/C(C)=C/C(=O)O)C(C)(C)CCC1` [ATRA, all-trans retinoic acid] the “ability of in vitro generated MDSCs to inhibit CD4+ or CD8+ T cell proliferation” value was “BRQ is more effective than ATRA”.
